# Test results reported in patent publication US20100063085A1, “METHOD OF TREATING LEARNING IMPAIRMENT IN DOWN'S SYNDROME SUBJECTS” (University Court of The University of Dundee, priority 2008, published 2010).
# Read-outs that look alike come from different tables or passages of the source.
# How the values were obtained:
# SAPK3/p38g = target: T1, SAPK3/p38g (Homo sapiens, UniProt P53778); experiment: SAPK3/p38g 33P kinase assay; assay type: biochemical; conditions: read-out: SAPK3/p38g activity as percentage of control without inhibitor
# T1 sequence (P53778 1-367): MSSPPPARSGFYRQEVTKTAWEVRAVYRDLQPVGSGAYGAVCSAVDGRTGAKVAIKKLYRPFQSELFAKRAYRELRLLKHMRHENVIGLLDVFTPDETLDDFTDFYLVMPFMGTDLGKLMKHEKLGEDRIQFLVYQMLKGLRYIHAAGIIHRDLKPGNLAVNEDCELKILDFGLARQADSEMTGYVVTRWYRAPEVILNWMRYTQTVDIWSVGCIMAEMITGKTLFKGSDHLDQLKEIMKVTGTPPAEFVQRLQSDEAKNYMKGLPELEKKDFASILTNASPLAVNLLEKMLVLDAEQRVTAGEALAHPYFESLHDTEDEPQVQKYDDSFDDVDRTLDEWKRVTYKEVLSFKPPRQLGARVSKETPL
# Experimental: (§1) All assays (25.5 μl) were carried out at room temperature (21° C.) and were linear with respect to time and enzyme concentrations under the conditions used. Assays were performed for 30 minutes except assays for LCK and PKB which were performed for 15 minutes using Multidrop Micro reagent dispensers (Thermo Electron Corporation, Waltham, Mass. 02454, USA) in a 96-well format. The concentration of […] [γ-^33P] ATP (800 cpm/pmol) in the assays was one of three concentrations (5, 20 or 50 μM) in order to be at or below Km for ATP for the enzyme. Assays were initiated with MgATP and stopped by addition of 5 μl of 0.5M orthophosphoric acid. Assays were then harvested onto P81 filterplates using a unifilter harvester (PerkinElmer, Boston, Mass. 02118, USA), with a wash buffer of 50 mM orthophosphoric acid. Filterplates were then air dried overnight. 10 μl of Microscint O was added per well prior to counting for radioactivity.
# (§2) MKK1, JNK/SAPK1c, SAPK2a/p38, SAPK2b/p38β2, SAPK3/p38γ, SAPK4/p38δ, MAPK2/ERK2, MAPKAP-K1β, MAPKAP-K2, MSK1, PRAK, PKA, PKCα, PDK1, SGK, p70S6K, GSK3β, ROCK-II, PRK2, AMPK, CHK1, CHK2, CK2, PHK, LCK, were assayed according to Davies et al., (Davies, S. P., Reddy, H., Caivano, M. and Cohen, P. Biochem. J. 351, 95-105, 2000.
# (§3) CSK and CDK2/cyclinA, were assayed according to Bain et al. (Bain J, McLauchlan H, Elliott M, Cohen P. Biochem J. 371, 199-204, 2003., except that ATP concentrations were either 5, 20 or 50 micromolar so that they were at or below the Km for ATP. The ATP concentrations used were as follows, 5 μM for assays of MKK1, SAPK3, SAPK4, GSK3β, PRK2 CK2 20 μm for assays of JNK, SAPK2β, MAPKAP-K2, MSK1, PRAK, PKA, […], PDK1, SGK, p70S6K, ROCK-II, CHK1, CHK2, CSK, CDK2, and 50 μM for assays of SAPK2a, MAPK2/ERK2, AMPK, LCK, PHK and MAPKAP-K1β.
# Src = Src (Homo sapiens, UniProt P12931); experiment: biochemical; conditions: read-out: Src activity as percentage of control without inhibitor; for remaining activity at 10 µM: inhibitor 10 μM
# Experimental: as §1, with “Assays” for “All assays (25.5 μl) were carried out at room temperature (21° C.) and were linear with respect to time and enzyme concentrations under the conditions used. Assays”
# The following kinases were assayed against the substrates indicated. Aurora B was assayed against the substrate peptide […] (300 μM), ERK8 and MST-2 were both assayed against MBP (0.33 mg/ml). IKKβ was assayed against the substrate peptide […] (300 μM), JNK3 was assayed against 3 μM ATF2[19-96]. MAPKAP-K3 and PKD1 were both assayed against […] (30 μM), MARK3 was assayed against CHKtide ([…]) substrate peptide (300 μM). MNK1 and MNK2 were both assayed against eIF4E protein (0.5 mg/ml). NEK7 was assayed against […] (300 μM), PIM2 was assayed against […] (300 μM), ΔPH PKBβ-S474D was assayed against Crosstide (30 μM), PLK1 was assayed against […] (300 μM). PRK2 was assayed against Long S6 peptide, […] (30 μM), RSK2 was assayed against […] (30 μM), SRC was assayed against cdc2 peptide, […], (300 μM) and SRPK1 was assayed against peptide […] (300 μM). All enzymes were diluted in 50 mM Tris/HCl pH 7.5, 0.1 mM EGTA, 1 mg/ml BSA, 0.1% β-mercaptoethanol buffer and assayed in an incubation containing 50 mM Tris/HCl pH7.5, 0.1 mM EGTA, 0.1% β-mercaptoethanol, CAMK-1 (5-20 mU) diluted in 50 mM Tris/HCl pH 7.5, 0.1 mM EGTA, 1 mg/ml BSA, 0.1% β-mercaptoethanol is assayed against substrate peptide […] in an incubation containing 50 mM Tris/HCl pH 7.5, 0.1 mM EGTA, 0.5 mM CaCl2, 0.3 μM calmodulin, 0.1% β-mereaptoethanol, 300 μM substrate peptide, 10 mM magnesium acetate and 0.05 mM [^33P-γ-ATP] (500-1000 cpm/pmole). EF2K (5-20 mU) diluted in 50 mM Hepes pH 6.6, 0.1% β-mercaptoethanol, 1 mg/ml BSA is assayed against a substrate peptide […] in an incubation containing 50 mM Hepes pH 6.6, 0.2 mM CaCl2, 0.3 μM Calmodulin, 0.05% b-mercaptoethanol, 300 μM substrate peptide, 10 mM magnesium acetate and 0.05 mM [^33P-γ-ATP] (500-1000 cpm/pmole).
# MAPK2/ERK2 = MAPK2/ERK2 (Homo sapiens, UniProt P28482); experiment: MAPK2/ERK2 33P kinase assay; assay type: biochemical; conditions: read-out: MAPK2/ERK2 activity as percentage of control without inhibitor
# Experimental: as §1, §2, §3
# Sequence of MAPK2/ERK2 (P28482 whole entry): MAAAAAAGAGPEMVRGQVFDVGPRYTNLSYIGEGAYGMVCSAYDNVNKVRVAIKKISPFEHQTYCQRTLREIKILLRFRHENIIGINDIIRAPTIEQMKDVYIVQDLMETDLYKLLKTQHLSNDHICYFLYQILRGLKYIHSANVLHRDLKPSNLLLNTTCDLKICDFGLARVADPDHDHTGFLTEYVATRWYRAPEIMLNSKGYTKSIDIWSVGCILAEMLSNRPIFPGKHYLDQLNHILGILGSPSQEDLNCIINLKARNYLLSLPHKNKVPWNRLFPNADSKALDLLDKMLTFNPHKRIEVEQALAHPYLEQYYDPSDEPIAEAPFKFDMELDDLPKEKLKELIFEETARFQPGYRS
# Sequence of Src (P12931 whole entry, species assumed): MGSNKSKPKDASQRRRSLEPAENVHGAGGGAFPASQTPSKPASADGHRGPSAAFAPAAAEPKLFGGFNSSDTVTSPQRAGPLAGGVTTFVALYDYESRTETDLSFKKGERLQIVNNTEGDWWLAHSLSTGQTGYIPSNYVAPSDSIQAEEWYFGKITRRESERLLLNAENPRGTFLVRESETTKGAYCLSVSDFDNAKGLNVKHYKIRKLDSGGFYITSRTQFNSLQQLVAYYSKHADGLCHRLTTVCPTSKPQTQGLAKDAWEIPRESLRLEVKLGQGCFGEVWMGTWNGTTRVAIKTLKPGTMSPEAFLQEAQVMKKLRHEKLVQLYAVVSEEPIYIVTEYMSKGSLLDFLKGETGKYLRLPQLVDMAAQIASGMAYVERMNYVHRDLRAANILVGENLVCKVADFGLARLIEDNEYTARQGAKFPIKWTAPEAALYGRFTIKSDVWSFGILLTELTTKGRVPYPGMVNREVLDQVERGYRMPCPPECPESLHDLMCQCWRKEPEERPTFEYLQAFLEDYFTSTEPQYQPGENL
SMILES,remaining activity at 1 µM (SAPK3/p38g; inhibitor 1 μM) [%],remaining activity at 10 µM (SAPK3/p38g; inhibitor 10 μM) [%],remaining activity at 1 µM (Src; inhibitor 1 μM) [%],remaining activity at 10 µM (Src) [%],remaining activity at 1 µM (MAPK2/ERK2; inhibitor 1 μM) [%],remaining activity at 10 µM (MAPK2/ERK2; inhibitor 10 μM) [%],remaining activity at 1 µM (SAPK3/p38g) [%],remaining activity at 10 µM (SAPK3/p38g) [%],remaining activity at 1 µM (Src) [%],remaining activity at 1 µM (MAPK2/ERK2) [%],remaining activity at 10 µM (MAPK2/ERK2) [%]
COc1ccc2c3c([nH]c2c1)C(C)=NCC3 [Harmaline],98,94,47,65,80,89,–,–,–,–,–
CC1=NCCc2c1[nH]c1cc(O)ccc21 [Harmalol],98,92,101,83,88,85,–,–,–,–,–
COc1ccc2c(c1)[nH]c1c(C)nccc12 [Harmine],–,–,–,–,–,–,82,72,108,98,89
